Data on ten compounds can be found in patent publication US10913738B2 (BRISTOL-MYERS SQUIBB COMPANY, priority 2017, dated 2021).

Data set [1] deals with Female C57/Bl6 mice, mTNF + zVAD-fmk induced hypothermia. Description: TNF-Induced Systemic Inflammatory Response Syndrome (SIRS), body temperature. It is filed as in vivo. To be noted: mouse, 3 h after mTNF, relative to 6 mg/kg Nec-1s, read-out: % protection from body temp loss; for inhibition in vivo at 0.4 mg/kg: 0.4 mg/kg oral gavage 2 h before mTNF; for inhibition in vivo at 1 mg/kg: 1.0 mg/kg oral gavage 2 h before mTNF. Here is the method: (§1) TNF-Induced Systemic Inflammatory Response Syndrome (SIRS)
(§2) RIPK1 inhibitors were evaluated for efficacy in vivo using a TNF-dependent model of systemic “shock”, also known as systemic inflammatory response syndrome (SIRS) (Duprez et al. 2011, Immunity 35(6):908-918). Intravenous injection of murine TNF induces a systemic inflammatory response characterized by a decrease in body temperature and an increase in circulating cytokines (IL-6, KC) in the serum. The addition of zVAD-fmk strongly sensitizes mice to TNF-induced shock through the inhibition of caspases (Cauwels et al., 2003). The combination of pretreatment with zVAD-fmk prior to injection of mTNF forms the basis of the RIPK1-dependent, TNF-induced, inflammatory response in this model.
(§3) Female C57/Bl6 mice (9 to 11 weeks old) were obtained from Jackson Labs (Bar Harbor, Me.). Mice were housed in BMS' animal facility with ad libitum access to food and water. Mice were and allowed to acclimate for at least 2 weeks and typically weighed at least 21 grams before being used in any studies. Group size was 6 mice per treatment. All experiments were conducted with the approval of BMS' Institutional Animal Care and Use Committee (IACUC)
(§4) Program compounds were dosed by oral gavage 2 h before IV challenge with 20 μg of murine TNF (#CRT192C, Cell Sciences, Canton, Mass.). zVAD-fmk (16.7 mg/kg) was given IV, 15 min before mTNF injection. The RIPK1 kinase inhibitor, necrostatin-1s (Nec-1s) was used as a positive control and was dosed at 6 mg/kg, IV, 30 minutes before mTNF challenge. mTNF was diluted in endotoxin-free PBS and 20 μg/mouse was injected in a volume of 0.1 ml into the retro-orbital sinus. All IV injections were done via the retro-orbital sinus and injection sites were alternated (left and right sides).
Three (3) hours after mTNF injection, mice were assessed for hypothermia and mortality. Rectal body temperature was recorded with an electric thermometer (Acorn Series Model JKT with a Ret-3 probe, Oakton Instruments Vernon Hills Ill. 60061).
(§5) Using these assays, the percent protection of body temperature and percent reduction in IL6 cytokine of the following compounds were determined. See Table B. % Protection is relative to a 6 mg/kg dose of Nec-1s (5-((7-Cl-1H-indol-3-yl)methyl)-3-methylimidazolidine-2,4-dione)).

Data set [2] concerns the target T1, His-GST-TVMV-hRIPK1(1-324) (Homo sapiens, UniProt Q13546).
T1 construct: The coding region of human RIPK1(1-324) flanked by NdeI site at 5′ end; made in house; host or cells: Spodoptera frugiperda (Sf9) insect cells, baculovirus
T1 sequence (Q13546 1-324): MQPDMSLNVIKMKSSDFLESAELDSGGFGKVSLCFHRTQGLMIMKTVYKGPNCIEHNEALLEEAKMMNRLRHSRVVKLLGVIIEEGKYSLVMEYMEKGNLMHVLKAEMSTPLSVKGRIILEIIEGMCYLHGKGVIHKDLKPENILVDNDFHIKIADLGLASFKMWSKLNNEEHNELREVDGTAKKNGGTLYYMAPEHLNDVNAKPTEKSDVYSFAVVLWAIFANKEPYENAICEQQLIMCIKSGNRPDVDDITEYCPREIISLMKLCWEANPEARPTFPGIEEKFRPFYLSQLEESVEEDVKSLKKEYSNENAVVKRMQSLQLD
Description: RIPK1 HTRF Binding Assay. In general terms: Time-resolved FRET reads energy transfer from a long-lived donor to a nearby acceptor.

Data set [3] in a line: Exposure in TNF-induced SIRS study (blood samples for PK determination). To be noted: mouse. It is filed as in vivo. As to the method: as §4
(§6) Blood samples for PK determination were collected into heparinized microtainer blood tubes (Part #365965, Becton Dickinson, Franklin Lakes N.J.) and mixed well. Dried blood spots (DBS) were prepared by pipetting 10 μl of whole blood, in duplicate, onto bioanalysis cards (#GR2261004, Perkin Elmer, Greenville, S.C.). A serum sample was obtained by collecting blood into a separator tube (#450472, Greiner Bio-One, Austria) and centrifuged (10 min at 10,000 RPM) to separate the serum. All blood samples were obtained from the retro-orbital sinus while under isoflurane anesthesia.

The test system of data set [4] is MLKL phosphorylation in HT29-L23 human colorectal adenocarcinoma cells. Briefly: MLKL Phosphorylation High-Content Assay. Particulars: Homo sapiens. In kind it is cell-based. A digest of the protocol: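 Cells incubated six hours at 37° C., then phospho-MLKL (S358) immunostained overnight at 4° C. and imaged by high-content microscopy. Phosphorylation quantified as mean circ-ring average intensity ratio; IC50 and Ymax from 4-parameter logistic fits.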

The test system of data set [5] is IL-6. Briefly: TNF-Induced SIRS, serum cytokines (IL-6, KC) by ELISA. In kind it is in vivo. Particulars: mouse, relative to 6 mg/kg Nec-1s, read-out: % protection from IL6 increase; for inhibition in vivo at 0.4 mg/kg: 0.4 mg/kg oral gavage 2 h before mTNF; for inhibition in vivo at 1 mg/kg: 1.0 mg/kg oral gavage 2 h before mTNF. As to the method:
as §1, §2, §3, §4, §6
Serum cytokines were evaluated by ELISA assay. IL-6 was measured using OPTeia Kit (Becton Dickinson, Franklin Lakes N.J.) while KC was measured using an R&D Duoset kit (R&D Systems Inc. Minneapolis, Minn.)
as §5
Background: An ELISA detects its analyte on a solid surface through an enzyme-linked reagent.

Setting [6] is: x marks IC50 class <20 nM, read-out: RIPK1 HTRF binding <20 nM.
Setting [7] is: x marks IC50 class 20-200 nM, read-out: pMLKL cell activity 20-200 nM.
The mark [8] stands for this setting: x marks IC50 class <20 nM, read-out: pMLKL cell activity <20 nM.
[9] abbreviates: 0.1 mg/kg oral gavage 2 h before mTNF.

Like-named read-outs stand apart in the source and are kept apart here.

Consider `COc1ncc(-c2ccn3nc(N)nc3c2)cc1C(=O)NCc1ccccc1OC(F)(F)F` [Example 74, 5-{2-Amino-[1,2,4]triazolo[1,5-a]pyridin-7-yl}-2-methoxy-N-{[2-(trifluoromethoxy)phenyl]methyl}pyridine-3-carboxamide], for which the inhibition in vivo at 0.4 mg/kg in data set [1] amounted to 115%; in data set [5], 87%. Also, the IC50 in data set [2] (setting [6]) was below 20 nM; in data set [4] (setting [7]), 20 to 200 nM. In addition, the “Exposure” value in data set [3] (0.4 mg/kg oral gavage) is 117 nM.
For `COc1ncc(-c2ccn3nc(N)nc3c2)cc1C(=O)N1CCC[C@@H](Cc2ccc(F)cc2)C1` [Example 136, 7-{5-[(3S)-3-[(4-fluorophenyl)methyl]piperidine-1-carbonyl]-6-methoxypyridin-3-yl}-[1,2,4]triazolo[1,5-a]pyridin-2-amine], the results for the inhibition in vivo at 0.4 mg/kg in data set [1] and in data set [5] were 106% and 80%, respectively. In addition, the IC50 in data set [2] (setting [6]) and in data set [4] (setting [8]) was below 20 nM in each case. Further, the “Exposure” value in data set [3] (0.4 mg/kg oral gavage) was 364 nM.
`COc1ncc(-c2ccn3nc(N)nc3c2)cc1C(=O)NCc1cccc(OC(F)(F)F)c1` [Example 58, 5-{2-Amino-[1,2,4]triazolo[1,5-a]pyridin-7-yl}-2-methoxy-N-{[3-(trifluoromethoxy)phenyl]methyl}pyridine-3-carboxamide]: the inhibition in vivo at 0.4 mg/kg amounted to 113% in data set [1] and 78% in data set [5]. In addition, the IC50 in data set [2] (setting [6]) was below 20 nM; in data set [4] (setting [7]) it was 20 to 200 nM. In data set [3] (0.4 mg/kg oral gavage), the “Exposure” value amounted to 409 nM.
As to `COc1ncc(-c2ccn3nc(N)nc3c2)cc1C(=O)NCCCc1ccccc1` [Example 102, 5-{2-amino-[1,2,4]triazolo[1,5-a]pyridin-7-yl}-2-methoxy-N-(4-phenylpropyl)pyridine-3-carboxamide], the results for the inhibition in vivo at 1 mg/kg in data set [1] and in data set [5] were 107% and 82%, respectively. Besides, the IC50 lay within 20 to 200 nM in data set [2] (x marks IC50 class 20-200 nM, read-out: RIPK1 HTRF binding 20-200 nM) and 20 to 200 nM in data set [4] (setting [7]). The “Exposure” value in data set [3] (1.0 mg/kg oral gavage) is recorded as 1287 nM.
On to `COc1ncc(-c2ccn3nc(N)nc3c2)cc1C(=O)NC(C)c1ccccc1OC(F)(F)F` (single isomer, unassigned) [Example 38-1, 5-{2-Amino-[1,2,4]triazolo[1,5-a]pyridin-7-yl}-2-methoxy-N-{1-[2-(trifluoromethoxy)phenyl]ethyl}pyridine-3-carboxamide], for which the inhibition in vivo at 0.1 mg/kg in data set [1] (setting [9]) was found to be 80%; in data set [5] (setting [9]), 93%. Further, the IC50 in data set [2] (setting [6]) and in data set [4] (setting [8]) was below 20 nM throughout. Further, in data set [3] (0.1 mg/kg oral gavage), the “Exposure” value was 12 nM.
For the compound `COc1ncc(-c2ccn3nc(N)nc3c2)cc1C(=O)NCc1cc(OC(F)(F)F)ccc1F` [Example 160, 5-{2-amino-[1,2,4]triazolo[1,5-a]pyridin-7-yl}-N-{[2-fluoro-5-(trifluoromethoxy)phenyl]methyl}-2-methoxypyridin-3-carboxamide], the inhibition in vivo at 1 mg/kg was determined as 107% in data set [1] and 60% in data set [5]. Further, the IC50 in data set [2] (setting [6]) is below 20 nM; in data set [4] (setting [7]) it was 20 to 200 nM. Further, the “Exposure” value in data set [3] (1.0 mg/kg oral gavage) is 693 nM.
Turning to `COc1ncc(-c2ccn3nc(N)nc3c2)cc1C(=O)NCc1cc(F)cc(F)c1OCC1CC1` [Example 131, 5-{2-amino-[1,2,4]triazolo[1,5-a]pyridin-7-yl}-N-{[2-(cyclopropylmethoxy)-3,5-difluorophenyl]methyl}-2-methoxypyridine-3-carboxamide], the inhibition in vivo at 0.4 mg/kg in data set [1] amounted to 15%; in data set [5], 8%. Further, the IC50 in data set [2] (setting [6]) and in data set [4] (setting [8]) was below 20 nM in each case. The “Exposure” value in data set [3] (0.4 mg/kg oral gavage) worked out at 50 nM.
For `Cc1ncc(-c2ccn3nc(N)nc3c2)cc1C(=O)NC(C)c1cccc(OC(F)(F)F)c1` (stereo not shown) [Example 251, 5-{2-amino-[1,2,4]triazolo[1,5-a]pyridin-7-yl}-2-methyl-N-{1-[3-(trifluoromethoxy)phenyl]ethyl}pyridine-3-carboxamide], the inhibition in vivo at 1 mg/kg is 86% in data set [1] and 97% in data set [5]. Also, the “Exposure” value in data set [3] (1.0 mg/kg oral gavage) is given as 1208 nM. In addition, the IC50 in data set [4] (setting [7]) is 20 to 200 nM.
Consider `C[C@H](NC(=O)c1cnc(Cl)c(-c2ccn3nc(N)nc3c2)c1)c1cc(OC(F)(F)F)ccc1F` [Example 371, (S)-5-(2-amino-[1,2,4]triazolo[1,5-a]pyridin-7-yl)-6-chloro-N-(1-(2-fluoro-5-(trifluoromethoxy)phenyl)ethyl)nicotinamide], for which the IC50 in data set [2] (setting [6]) was below 20 nM; in data set [4] (setting [7]) it was 20 to 200 nM.
With `Cc1ncc(-c2ccn3nc(N)nc3c2)cc1C(=O)NCc1c(OCC2CC2)ccc(F)c1F` [Example 304, 5-(2-amino-[1,2,4]triazolo[1,5-a]pyridin-7-yl)-N-(6-(cyclopropylmethoxy)-2,3-difluorobenzyl)-2-methylnicotinamide], the IC50 in data set [2] (setting [6]) is below 20 nM; in data set [4] (setting [7]), 20 to 200 nM.
